What all share (assay type): functional
In assay [1] the test system is Bacillus subtilis. The assay can be described thus: Antibacterial activity against penicillin-susceptible Bacillus subtilis ATCC 9372 assessed as inhibition of bacterial growth measured after 20 hrs by two-fold microdilution assay. On the technique in general: Dilution methods test growth across graded concentrations, often in twofold steps.
Assay [2] relates to Staphylococcus aureus. Nature of the assay: Antibacterial activity against erythromycin-susceptible Staphylococcus aureus ATCC 25923 assessed as inhibition of bacterial growth measured after 20 hrs by two-fold microdilution assay.
Assay [3] concerns Staphylococcus aureus. Nature of the assay: Antibacterial activity against penicillin-resistant Staphylococcus aureus ATCC 31007 assessed as inhibition of bacterial growth measured after 20 hrs by two-fold microdilution assay.
Assay [4] relates to Staphylococcus epidermidis. Nature of the assay: Antibacterial activity against penicillin-resistant Staphylococcus epidermidis assessed as inhibition of bacterial growth measured after 20 hrs by two-fold microdilution assay.
In assay [5] the test system is Enterococcus faecalis. The assay can be described thus: Antibacterial activity against Vancomycin-susceptible Enterococcus faecalis ATCC 29212 assessed as inhibition of bacterial growth measured after 20 hrs by two-fold microdilution assay.
Assay [6] has as its system Enterococcus faecium. The assay can be described thus: Antibacterial activity against Vancomycin-susceptible Enterococcus faecium ATCC 19434 assessed as inhibition of bacterial growth measured after 20 hrs by two-fold microdilution assay.
Assay [7] deals with Enterococcus faecium. Nature of the assay: Antibacterial activity against Vancomycin-resistant Enterococcus faecium ATCC 51559 assessed as inhibition of bacterial growth measured after 20 hrs by two-fold microdilution assay.
Assay [8] deals with Enterococcus faecalis. The assay can be described thus: Antibacterial activity against Vancomycin-resistant Enterococcus faecalis ATCC 51299 assessed as inhibition of bacterial growth measured after 20 hrs by two-fold microdilution assay.
Assay [9] concerns Bacillus pumilus. The assay can be described thus: Antibacterial activity against penicillin-susceptible Bacillus pumilus CMCC63202 assessed as inhibition of bacterial growth measured after 20 hrs by two-fold microdilution assay.
Assay [10] concerns Streptococcus pyogenes. The assay can be described thus: Antibacterial activity against erythromycin-susceptible Streptococcus pyogenes assessed as inhibition of bacterial growth measured after 20 hrs by two-fold microdilution assay.
For assay [11], the system named is Escherichia coli. Nature of the assay: Antibacterial activity against penicillin-susceptible Escherichia coli ATCC 25922 assessed as inhibition of bacterial growth measured after 20 hrs by two-fold microdilution assay.
The test system of assay [12] is Pseudomonas aeruginosa. Nature of the assay: Antibacterial activity against penicillin-susceptible Pseudomonas aeruginosa ATCC 27853 assessed as inhibition of bacterial growth measured after 20 hrs by two-fold microdilution assay.
Assay [13] relates to Staphylococcus aureus. Nature of the assay: Antibacterial activity against methicillin-resistant Staphylococcus aureus ATCC43300 assessed as inhibition of bacterial growth measured after 20 hrs by two-fold microdilution assay.
Assay [14] relates to Staphylococcus aureus. Nature of the assay: Antibacterial activity against clinical isolate Staphylococcus aureus C1 assessed as inhibition of bacterial growth measured after 20 hrs by two-fold microdilution assay.
The subject of assay [15] is Streptococcus pyogenes. The assay can be described thus: Antibacterial activity against erythromycin-resistant Streptococcus pyogenes assessed as inhibition of bacterial growth measured after 20 hrs by two-fold microdilution assay.

Values after ≈ are worked out from the molar mass of the structure shown.

For the compound `O=C(O)c1cn(C2CC2)c2cc(N3CCNCC3)c(F)cc2c1=O` [CIPROFLOXACIN], the MIC (in general, the smallest concentration in the dilution series that meets the test's criterion for growth inhibition) in assay [1] is 4 µg/mL (≈ 12.1 µM); in assay [2], 4 µg/mL (≈ 12.1 µM); in [3], over 64 µg/mL; in assay [4], over 64 µg/mL; in assay [5], 32 µg/mL (≈ 96.6 µM); in assay [6], over 64 µg/mL. Besides, the MIC in assay [7] and in [8] was over 64 µg/mL each time.

Consider `Cc1ccc2c(c1)c[n+](C)c1ccc(-c3nc4ccccc4s3)cc21.[Cl-]`, for which the MIC in assay [1] is 4 µg/mL; in assay [9], 32 µg/mL; in [2], 32 µg/mL; in assay [10] it was 16 µg/mL; in assay [11], over 64 µg/mL; in assay [12], over 64 µg/mL. For the same compound, the MIC is over 64 µg/mL in [13]; over 64 µg/mL in assay [3]; over 64 µg/mL in assay [14]; 16 µg/mL in assay [15]; over 64 µg/mL in [4].

In the case of `COc1ccc2c[n+](C)c3ccc(-c4nc5ccccc5s4)cc3c2c1.[Cl-]`, the minimum inhibitory concentration (MIC) in assay [1], in assay [9], in [2], in assay [10], in assay [11] and in assay [12] was over 64 µg/mL throughout. Moreover, the MIC in assay [13], in [3], in [14] and in [4] was over 64 µg/mL throughout.

Regarding `Cc1ccc2c[n+](C)c3ccc(-c4nc5ccccc5s4)cc3c2c1.[Cl-]`, the MIC is 1 µg/mL in assay [1]; 4 µg/mL in [9]; 16 µg/mL in assay [2]; 4 µg/mL in assay [10]; over 64 µg/mL in [11]; over 64 µg/mL in [12]. Further, the MIC in [13] was over 64 µg/mL; in [3], over 64 µg/mL; in [14] it was over 64 µg/mL; in assay [15], 4 µg/mL; in [4] it was over 64 µg/mL.

Take `Cc1cccc2c1c[n+](C)c1ccc(-c3nc4ccccc4s3)cc21.[Cl-]`: the MIC in assay [1] was over 64 µg/mL; in assay [9], over 64 µg/mL; in assay [2] it was 16 µg/mL; in assay [10] it was 32 µg/mL; in assay [11], over 64 µg/mL; in assay [12], over 64 µg/mL. The MIC in [13] was over 64 µg/mL; in assay [3], over 64 µg/mL; in assay [14], over 64 µg/mL; in assay [15], 64 µg/mL; in assay [4], over 64 µg/mL.

Take `CCCCCn1ccc2ccc(-c3ccc4c(c3)c3cc(C)ccc3c[n+]4C)cc21.[Cl-]`: the MIC in assay [1] was 4 µg/mL; in assay [9], 8 µg/mL; in assay [2], 2 µg/mL; in [10], 8 µg/mL; in assay [11] it was over 64 µg/mL; in assay [12] it was over 64 µg/mL. Also, the MIC in assay [13] was found to be 4 µg/mL; in [3], 8 µg/mL; in assay [14], 4 µg/mL; in assay [15], 16 µg/mL; in [4] it was 8 µg/mL.

Turning to `Cc1cccc2c[n+](C)c3ccc(-c4ccc5ccn(CC(C)C)c5c4)cc3c12.[Cl-]`, the MIC in assay [1] is 4 µg/mL; in assay [9] it was 8 µg/mL; in assay [2], 2 µg/mL; in assay [10], 8 µg/mL; in [11], over 64 µg/mL; in assay [12] it was over 64 µg/mL. Besides, the minimal inhibitory concentration (MIC) in assay [13] worked out at 4 µg/mL; in assay [3] it was 8 µg/mL; in [14], 4 µg/mL; in [15], 16 µg/mL; in assay [4], 8 µg/mL.

Take `Cc1cccc2c[n+](C)c3ccc(-c4ccc5ccn(C)c5c4)cc3c12.[Cl-]`: the MIC in assay [1] was 1 µg/mL; in assay [9], 8 µg/mL; in assay [2] it was 2 µg/mL; in [10], 8 µg/mL; in [11] it was over 64 µg/mL; in [12], over 64 µg/mL. For the same compound, the MIC amounted to 8 µg/mL in assay [13]; 32 µg/mL in assay [3]; 8 µg/mL in assay [14]; 4 µg/mL in assay [15]; 16 µg/mL in assay [4].

As to `CCCn1ccc2ccc(-c3ccc4c(c3)c3cc(C)ccc3c[n+]4C)cc21.[Cl-]`, the MIC was 64 µg/mL in assay [1]; over 64 µg/mL in assay [9]; 16 µg/mL in assay [2]; over 64 µg/mL in assay [10]; over 64 µg/mL in [11]; over 64 µg/mL in assay [12]. Also, the MIC in assay [13] is 64 µg/mL; in assay [3], over 64 µg/mL; in [14] it was 32 µg/mL; in assay [15] it was 32 µg/mL; in assay [4], over 64 µg/mL.

Regarding `CCn1ccc2ccc(-c3ccc4c(c3)c3c(C)cccc3c[n+]4C)cc21.[Cl-]`, the MIC in assay [1] was 4 µg/mL; in [9], 16 µg/mL; in [2], 2 µg/mL; in assay [10], 8 µg/mL; in [11] it was over 64 µg/mL; in assay [12], over 64 µg/mL. In addition, the MIC came to 8 µg/mL in assay [13]; 32 µg/mL in [3]; 8 µg/mL in [14]; 8 µg/mL in [15]; 16 µg/mL in assay [4].

For `CN[C@H](CC(C)C)C(=O)N[C@H]1C(=O)N[C@@H](CC(N)=O)C(=O)N[C@H]2C(=O)N[C@H]3C(=O)N[C@H](C(=O)N[C@H](C(=O)O)c4cc(O)cc(O)c4-c4cc3ccc4O)[C@H](O)c3ccc(c(Cl)c3)Oc3cc2cc(c3O[C@@H]2O[C@H](CO)[C@@H](O)[C@H](O)[C@H]2O[C@H]2C[C@](C)(N)[C@H](O)[C@H](C)O2)Oc2ccc(cc2Cl)[C@H]1O` [VANCOMYCIN], the MIC in assay [5] is 2 µg/mL (≈ 1.38 µM); in assay [7] it was over 64 µg/mL; in assay [8], over 64 µg/mL.

Consider `COc1ccc2c(c1)c[n+](C)c1ccc(-c3nc4ccccc4s3)cc21.[Cl-]`, for which the MIC in [1], in assay [9], in assay [2], in assay [10], in assay [11] and in assay [12] was over 64 µg/mL each time. The MIC in assay [13], in assay [3], in assay [14] and in [4] was over 64 µg/mL in each case.

For `CCCCCn1ccc2ccc(-c3ccc4c(c3)c3c(C)cccc3c[n+]4C)cc21.[Cl-]`, the MIC was 2 µg/mL in [1]; 4 µg/mL in assay [9]; 2 µg/mL in [2]; 16 µg/mL in assay [10]; over 64 µg/mL in assay [11]; over 64 µg/mL in [12]. Moreover, the MIC in assay [13] was determined as 2 µg/mL; in assay [3], 4 µg/mL; in assay [14], 2 µg/mL; in [15] it was 16 µg/mL; in [4], 8 µg/mL.

Take `C[n+]1cc2ccccc2c2cc(-c3nc4ccccc4s3)ccc21.[Cl-]`: the MIC in [1], in [9], in assay [2], in assay [10], in assay [11] and in [12] was over 64 µg/mL each time. The minimal inhibitory concentration (MIC) in [13], in [3], in [14] and in assay [4] was over 64 µg/mL throughout.

As for `Cc1ccc2c[n+](C)c3ccc(-c4ccc5ccn(CC(C)C)c5c4)cc3c2c1.[Cl-]`, the MIC was 4 µg/mL in assay [1]; 4 µg/mL in [9]; 2 µg/mL in assay [2]; 4 µg/mL in assay [10]; over 64 µg/mL in [11]; over 64 µg/mL in assay [12]. Further, the MIC in assay [13] was determined as 4 µg/mL; in assay [3], 8 µg/mL; in assay [14], 4 µg/mL; in assay [15], 8 µg/mL; in assay [4], 16 µg/mL.

Turning to `Cc1ccc2c[n+](C)c3ccc(-c4ccc5ccn(C)c5c4)cc3c2c1.[Cl-]`, the MIC in assay [1] was 2 µg/mL; in assay [9], 16 µg/mL; in assay [2], 4 µg/mL; in assay [10], 4 µg/mL; in [11] it was over 64 µg/mL; in assay [12], over 64 µg/mL. The MIC in assay [13] was 32 µg/mL; in assay [3], over 64 µg/mL; in assay [14] it was 8 µg/mL; in [15], 4 µg/mL; in [4], over 64 µg/mL.

In the case of `Cc1cccc2c[n+](C)c3ccc(-c4ccc5ccn(Cc6ccc(OC(F)(F)F)cc6)c5c4)cc3c12.[Cl-]`, the MIC in assay [1] is 8 µg/mL; in assay [9], 32 µg/mL; in assay [2] it was 2 µg/mL; in assay [10], 16 µg/mL; in [11], over 64 µg/mL; in assay [13], 16 µg/mL. The MIC in assay [3] was found to be 8 µg/mL; in assay [14] it was 8 µg/mL; in assay [15], 16 µg/mL; in [4] it was 8 µg/mL; in [5], 8 µg/mL; in [6], 4 µg/mL. In addition, the MIC amounted to 4 µg/mL in [7] and 8 µg/mL in assay [8].

For the origin of these results see ChEMBL document CHEMBL4828726, “Modification of 5-methylphenanthridium from benzothiazoles to indoles as potent FtsZ inhibitors: Broadening the antibacterial spectrum toward vancomycin-resistant enterococci” (Eur J Med Chem, 2021).
